Columns and labels:
[1] = Cytotoxicity against human WI-38 cells assessed as inhibition of cell proliferation by MTT assay; format: toxicity, cell-based
HT-29 = assay: Anticancer activity against human HT-29 cells assessed as inhibition of cell proliferation by MTT assay; format: functional, cell-based
RKO = assay: Anticancer activity against human RKO cells assessed as inhibition of cell proliferation by MTT assay; format: functional, cell-based
Huh-7 = assay: Anticancer activity against human Huh-7 cells assessed as inhibition of cell proliferation by MTT assay; format: functional, cell-based
MGC-803 = assay: Anticancer activity against human MGC-803 cells assessed as inhibition of cell proliferation by MTT assay; format: functional, cell-based
HCT-116 [2] = assay: Anticancer activity against human HCT-116 cells assessed as inhibition of cell proliferation by MTT assay; format: functional, cell-based
SW480 = assay: Anticancer activity against human SW480 cells assessed as inhibition of cell proliferation by MTT assay; format: functional, cell-based
LoVo = assay: Anticancer activity against human LoVo cells assessed as inhibition of cell proliferation by MTT assay; format: functional, cell-based
A549 = assay: Anticancer activity against human A549 cells assessed as inhibition of cell proliferation by MTT assay; format: functional, cell-based
SK-HEP1 = assay: Anticancer activity against human SK-HEP1 cells assessed as inhibition of cell proliferation by MTT assay; format: functional, cell-based
HCT-116 [3] = assay: Induction of apoptosis in human HCT-116 cells assessed as early apoptotic cells at 30 micromol/L incubated for 48 hrs by annexin V-FITC and propidium iodide staining based flow cytometry analysis (reference value: 2.69%); format: functional; conditions: dose 30 µmol/L, at 30 µM
HCT-116 [4] = assay: Induction of apoptosis in human HCT-116 cells assessed as late apoptotic cells at 30 micromol/L incubated for 48 hrs by annexin V-FITC and propidium iodide staining based flow cytometry analysis (reference value: 7.13%); format: functional; conditions: dose 30 µmol/L, at 30 µM
HCT-116 [5] = assay: Induction of apoptosis in human HCT-116 cells assessed as viable cells at 30 micromol/L incubated for 48 hrs by annexin V-FITC and propidium iodide staining based flow cytometry analysis (reference value: 89.29%); format: functional; conditions: HCT-116, 48 h, dose 30 µmol/L, read-out: Activity
HCT-116 [6] = assay: Induction of apoptosis in human HCT-116 cells assessed as necrotic cells at 30 micromol/L incubated for 48 hrs by annexin V-FITC and propidium iodide staining based flow cytometry analysis (reference value: 0.88%); format: functional; conditions: dose 30 µmol/L, at 30 µM

Row | SMILES | IC50 [1] [µM] | IC50 (HT-29) [µM] | IC50 (RKO) [µM] | IC50 (Huh-7) [µM] | IC50 (MGC-803) [µM] | IC50 (HCT-116 [2]) [µM] | IC50 (SW480) [µM] | IC50 (LoVo) [µM] | IC50 (A549) [µM] | IC50 (SK-HEP1) [µM] | Activity (HCT-116 [3]) [%] | Activity (HCT-116 [4]) [%] | viability at 30 µM (HCT-116 [5]) [%] | Activity (HCT-116 [6]) [%]
1 | CC(=O)Nc1ccc(OC(=O)CC[C@@H](C)[C@H]2CC[C@H]3[C@@H]4[C@H](O)C[C@@H]5C[C@H](O)CC[C@]5(C)[C@H]4C[C@H](O)[C@]23C)cc1 | > 200 | 53.3 | 36.3 | 70.4 | 36.7 | 54.3 | 38.7 | 58 | 59.4 | 41.1 |  |  |  | 
2 | CC(=O)Oc1ccc(OC(=O)CC[C@@H](C)[C@H]2CC[C@H]3[C@@H]4[C@H](O)C[C@@H]5C[C@H](O)CC[C@]5(C)[C@H]4CC[C@]23C)cc1 | > 200 | 56.3 | 142 | 60.7 | 109 | 149 | 100 | 76.9 | > 200 | 85 |  |  |  | 
3 | COc1cc(COC(=O)CC[C@@H](C)[C@H]2CC[C@H]3[C@@H]4[C@H](O)C[C@@H]5C[C@H](O)CC[C@]5(C)[C@H]4CC[C@]23C)cc(OC)c1 | > 200 | 26 | 45.4 | 63.1 | 36.6 | 45 | 37.6 | 21.3 | 99.6 | 65.1 |  |  |  | 
4 | C[C@H](CCC(=O)NCc1ccccc1O)[C@H]1CC[C@H]2[C@@H]3[C@H](O)C[C@@H]4C[C@H](O)CC[C@]4(C)[C@H]3C[C@H](O)[C@]12C | > 200 | 32.7 | 48.5 | 63.7 | 42.3 | 36.3 | 35.9 | 51.1 | 40.5 | 25.4 |  |  |  | 
5 | C[C@H](CCC(=O)OCc1cccc(O)c1)[C@H]1CC[C@H]2[C@@H]3[C@H](O)C[C@@H]4C[C@H](O)CC[C@]4(C)[C@H]3CC[C@]12C | > 200 | 33.6 | 128 | 124 | 49 | 42.3 | 42.8 | 40.9 | 69.4 | 99 |  |  |  | 
6 | C[C@H](CCC(=O)O)[C@H]1CC[C@H]2[C@@H]3[C@H](O)C[C@@H]4C[C@H](O)CC[C@]4(C)[C@H]3CC[C@]12C [CHENODIOL] |  | > 200 | > 200 | > 200 | > 200 | > 200 | > 200 | > 200 | > 200 | > 200 |  |  |  | 
7 | C[C@H](CCC(=O)O)[C@H]1CC[C@H]2[C@@H]3[C@H](O)C[C@@H]4C[C@H](O)CC[C@]4(C)[C@H]3C[C@H](O)[C@]12C [CHOLIC ACID] |  | > 200 | > 200 | > 200 | > 200 | > 200 | > 200 | > 200 | > 200 | > 200 |  |  |  | 
8 | C[C@H](CCC(=O)OCc1cccc(O)c1)[C@H]1CC[C@H]2[C@@H]3CC[C@@H]4C[C@H](O)CC[C@]4(C)[C@H]3CC[C@]12C | > 200 | 173 | 150 | 185 | > 200 | 142 | 183 | 158 | > 200 | 125 |  |  |  | 
9 | C[C@H](CCC(=O)OCc1cccc(O)c1)[C@H]1CC[C@H]2[C@@H]3[C@H](O)C[C@@H]4C[C@H](O)CC[C@]4(C)[C@H]3C[C@H](O)[C@]12C | > 200 | 24.3 | 47.6 | 102 | 54.9 | 33 | 39.3 | 28.7 | 47.8 | 61.8 |  |  |  | 
10 | C[C@H](CCC(=O)O)[C@H]1CC[C@H]2[C@@H]3CC[C@@H]4C[C@H](O)CC[C@]4(C)[C@H]3CC[C@]12C [LITHOCHOLIC ACID] |  | > 200 | > 200 | > 200 | > 200 | > 200 | > 200 | > 200 | > 200 | > 200 |  |  |  | 
11 | Cc1ccc(COC(=O)CC[C@@H](C)[C@H]2CC[C@H]3[C@@H]4[C@H](O)C[C@@H]5C[C@H](O)CC[C@]5(C)[C@H]4CC[C@]23C)cc1 | > 200 | 25.4 | 42.1 | 27.2 | 37.5 | 53.7 | 43.1 | 27.4 | 86.6 | 54.9 |  |  |  | 
12 | C[C@H](CCC(=O)O)[C@H]1CC[C@H]2[C@@H]3[C@@H](O)C[C@@H]4C[C@H](O)CC[C@]4(C)[C@H]3CC[C@]12C [URSODIOL] |  | > 200 | > 200 | > 200 | > 200 | > 200 | > 200 | > 200 | > 200 | > 200 |  |  |  | 
13 | COC(=O)[C@H](CCSC)NC(=O)CC[C@@H](C)[C@H]1CC[C@H]2[C@@H]3[C@H](O)C[C@@H]4C[C@H](O)CC[C@]4(C)[C@H]3C[C@H](O)[C@]12C | > 200 | 127 | 97.3 | 190 | 96.9 | 85.2 | 64.7 | 51.6 | > 200 | 173 |  |  |  | 
14 | C[C@H](CCC(=O)OCc1cccc(O)c1)[C@H]1CC[C@H]2[C@@H]3[C@@H](O)C[C@@H]4C[C@@H](O)CC[C@]4(C)[C@H]3CC[C@]12C | > 200 | 58.8 | 68.8 | 152 | 59.4 | 54.2 | 99 | 44.9 | > 200 | 155 |  |  |  | 
15 | CC(=O)Oc1ccc(OC(=O)CC[C@@H](C)[C@H]2CC[C@H]3[C@@H]4[C@@H](O)C[C@@H]5C[C@@H](O)CC[C@]5(C)[C@H]4CC[C@]23C)cc1 | > 200 | 123 | 187 | 185 | 111 | 102 | > 150 | 168 | 187 | 177 |  |  |  | 
16 | O=c1[nH]cc(F)c(=O)[nH]1 [FLUOROURACIL] |  | 17.5 | 12.7 | 1.06 | 6.06 | 32.3 | 21.9 |  | 109 | 12.5 | 2.13 | 69.38 | 27.9 | 0.59
17 | C[C@H](CCC(=O)OCc1ccc([N+](=O)[O-])cc1)[C@H]1CC[C@H]2[C@@H]3[C@H](O)C[C@@H]4C[C@H](O)CC[C@]4(C)[C@H]3CC[C@]12C | > 200 | 29.6 | 43.2 | 44.6 | 50.6 | 40.4 | 44.1 | 30.4 | 87.2 | 111 |  |  |  | 

— ChEMBL document CHEMBL5104211, “Design and synthesis of bile acid derivatives and their activity against colon cancer” (RSC Med Chem, 2022)
